Assay results: ChEMBL document CHEMBL1201862, “PubChem BioAssay data set” (2004)
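All cell lines were grown in 96-well plates and treated with compound for 48 hours. GI50: concentration for 50% inhibition of growth.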 Calls of active or inactive are those of the source. No stated cut-off is given here; in the data, active = GI50 up to about 1.1 µM and inactive = higher.

Columns and labels:
Test in all cases: NCI anticancer screen, dose series, 48 h
[1] = tested on: 786-0
[2] = tested on: A549
[3] = tested on: SF-295
[4] = tested on: NCI/ADR-RES
[5] = tested on: HCC 2998
[6] = tested on: HT-29
[7] = tested on: NCI-H23
[8] = tested on: SK-MEL-28
[9] = tested on: Hs-578T
[10] = tested on: SF-268
[11] = tested on: LOX IMVI
[12] = tested on: MDA-N
[13] = tested on: SK-MEL-2
[14] = tested on: NCI-H460
[15] = tested on: CAKI-1
[16] = tested on: HOP-62
[17] = tested on: U-251
[18] = tested on: SN12C
[19] = tested on: MDA-MB-435
[20] = tested on: RXF 393
[21] = tested on: DU-145
[22] = tested on: BT-549
[23] = tested on: MDA-MB-231
[24] = tested on: IGROV-1
[25] = tested on: SR
[26] = tested on: A498
[27] = tested on: SW-620
[28] = tested on: Malme-3M
[29] = tested on: M14
[30] = tested on: HCT-15
[31] = tested on: OVCAR-8
[32] = tested on: OVCAR-5
[33] = tested on: HOP-92
[34] = tested on: MOLT-4
[35] = tested on: NCI-H522
[36] = tested on: SNB-19
[37] = tested on: OVCAR-4
[38] = tested on: EKVX
[39] = tested on: PC-3
[40] = tested on: KM12
[41] = tested on: K562
[42] = tested on: SK-MEL-5
[43] = tested on: UO-31
[44] = tested on: UACC-257
[45] = tested on: ACHN
[46] = tested on: OVCAR-3
[47] = tested on: UACC-62
[48] = tested on: TK-10
[49] = tested on: HCT-116
[50] = tested on: NCI-H226
[51] = tested on: CCRF-CEM
[52] = tested on: RPMI-8226
[53] = tested on: COLO 205
[54] = tested on: MCF7
[55] = tested on: HL-60
[56] = tested on: SK-OV-3
[57] = tested on: SF-539
[58] = tested on: T47D

For `O=c1[nH]c2c(S)nc(O)nc2n1-c1ccccc1`, the GI50 [1] was > 100 µM (inactive), the GI50 [2] was > 100 µM (inactive) and the GI50 [3] was > 100 µM (inactive). The GI50 [4] was > 100 µM (inactive), the GI50 [5] was > 100 µM (inactive) and the GI50 [6] was > 100 µM (inactive). For the same molecule, the GI50 [7] was > 100 µM (inactive), the GI50 [8] was > 100 µM (inactive) and the GI50 [9] was > 100 µM (inactive). The GI50 [10] was > 100 µM (inactive), the GI50 [11] was > 100 µM (inactive) and the GI50 [12] was > 100 µM (inactive). The GI50 [13] was > 100 µM (inactive), the GI50 [14] was > 100 µM (inactive) and the GI50 [15] was > 100 µM (inactive). For the same molecule, the GI50 [16] was > 100 µM (inactive), the GI50 [17] was > 100 µM (inactive) and the GI50 [18] was > 100 µM (inactive). The GI50 [19] was > 100 µM (inactive), the GI50 [20] was > 100 µM (inactive) and the GI50 [21] was > 100 µM (inactive). For the same molecule, the GI50 [22] was > 100 µM (inactive), the GI50 [23] was > 100 µM (inactive) and the GI50 [24] was > 100 µM (inactive). The GI50 [25] was > 100 µM (inactive), the GI50 [26] was > 100 µM (inactive) and the GI50 [27] was > 100 µM (inactive). For the same molecule, the GI50 [28] was > 100 µM (inactive), the GI50 [29] was > 100 µM (inactive) and the GI50 [30] was greater than 100 µM. For the same molecule, the GI50 [31] was > 100 µM (inactive), the GI50 [32] was > 100 µM (inactive) and the GI50 [33] was > 100 µM (inactive). The GI50 [34] was > 100 µM (inactive), the GI50 [35] was > 100 µM (inactive) and the GI50 [36] was > 100 µM (inactive). For the same molecule, the GI50 [37] was > 100 µM (inactive), the GI50 [38] was > 100 µM (inactive) and the GI50 [39] was > 100 µM (inactive). For the same molecule, the GI50 [40] was > 100 µM (inactive), the GI50 [41] was > 100 µM (inactive) and the GI50 [42] was > 100 µM (inactive). The GI50 [43] was > 100 µM (inactive), the GI50 [44] was > 100 µM (inactive) and the GI50 [45] was > 100 µM (inactive). For the same molecule, the GI50 [46] was > 100 µM (inactive), the GI50 [47] was > 100 µM (inactive) and the GI50 [48] was > 100 µM (inactive). The GI50 [49] was > 100 µM (inactive) and the GI50 [50] was > 100 µM (inactive).

In the case of `COc1cccc(N2C(=O)CSC2c2cc(OC)c(OC)c(OC)c2)c1` (stereo unspecified), the GI50 [1] is reported as 28.9 µM (inactive), the GI50 [2] is reported as 37.1 µM (inactive) and the GI50 [3] is reported as 21.8 µM (inactive). For the same molecule, the GI50 [4] was 26.5 µM (inactive), the GI50 [5] was 22.7 µM (inactive) and the GI50 [6] was 33.1 µM (inactive). The GI50 [51] was 19.1 µM (inactive), the GI50 [7] was 29.2 µM (inactive) and the GI50 [8] was 62.2 µM (inactive). The GI50 [9] was 48.2 µM (inactive), the GI50 [10] was > 100 µM (inactive) and the GI50 [11] was 32.8 µM (inactive). For the same molecule, the GI50 [12] was 3.95 µM (inactive), the GI50 [13] was > 100 µM (inactive) and the GI50 [52] was 29 µM (inactive). The GI50 [14] was 27.8 µM (inactive), the GI50 [15] was 30.8 µM (inactive) and the GI50 [17] was 34.8 µM (inactive). The GI50 [18] was 44.1 µM (inactive), the GI50 [19] was 3.85 µM (inactive) and the GI50 [53] was 23 µM (inactive). The GI50 [21] was 12 µM (inactive), the GI50 [54] was 19.4 µM (inactive) and the GI50 [22] was 22.1 µM (inactive). For the same molecule, the GI50 [23] was 69.7 µM (inactive), the GI50 [24] was 44.6 µM (inactive) and the GI50 [25] was 5.75 µM (inactive). The GI50 [26] was > 100 µM (inactive), the GI50 [27] was 39.7 µM (inactive) and the GI50 [29] was 27.7 µM (inactive). The GI50 [30] was 20 µM, the GI50 [55] was 31.7 µM (inactive) and the GI50 [31] was 36 µM (inactive). For the same molecule, the GI50 [32] was 54.8 µM (inactive), the GI50 [33] was > 100 µM (inactive) and the GI50 [34] was 29.8 µM (inactive). For the same molecule, the GI50 [35] was 26.4 µM (inactive), the GI50 [36] was 23.1 µM (inactive) and the GI50 [37] was 47.3 µM (inactive). For the same molecule, the GI50 [38] was 49.7 µM (inactive), the GI50 [56] was 26.7 µM (inactive) and the GI50 [39] was 55.1 µM (inactive). For the same molecule, the GI50 [40] was 12.2 µM (inactive), the GI50 [41] was 25.9 µM (inactive) and the GI50 [42] was 19.8 µM (inactive). The GI50 [43] was 36.8 µM (inactive), the GI50 [44] was 20.9 µM (inactive) and the GI50 [45] was 57.7 µM (inactive). The GI50 [46] was 20.7 µM (inactive), the GI50 [47] was 34.2 µM (inactive) and the GI50 [48] was > 100 µM (inactive). The GI50 [49] was 31.8 µM (inactive), the GI50 [57] was 24.5 µM (inactive) and the GI50 [50] was 26.7 µM (inactive).

`CN(C)C(=O)Oc1ccc(C(=S)Nc2ccccc2)cc1` was tested, and the GI50 [1] was > 100 µM (inactive), the GI50 [2] was 66.2 µM (inactive) and the GI50 [58] was 53.6 µM (inactive). For the same molecule, the GI50 [3] was 87.7 µM (inactive), the GI50 [4] was 26.4 µM (inactive) and the GI50 [5] was > 100 µM (inactive). The GI50 [6] was 51.2 µM (inactive), the GI50 [51] was 26.6 µM (inactive) and the GI50 [7] was 28.6 µM (inactive). The GI50 [8] was 33.1 µM (inactive), the GI50 [9] was > 100 µM (inactive) and the GI50 [10] was > 100 µM (inactive). The GI50 [11] was 60.1 µM (inactive), the GI50 [12] was 37.4 µM (inactive) and the GI50 [13] was > 100 µM (inactive). The GI50 [52] was 64.1 µM (inactive), the GI50 [14] was 40.5 µM (inactive) and the GI50 [15] was > 100 µM (inactive). The GI50 [16] was > 100 µM (inactive), the GI50 [17] was > 100 µM (inactive) and the GI50 [19] was 42.3 µM (inactive). The GI50 [53] was 65.2 µM (inactive), the GI50 [21] was > 100 µM (inactive) and the GI50 [54] was 76 µM (inactive). For the same molecule, the GI50 [22] was 32 µM (inactive), the GI50 [24] was 34 µM (inactive) and the GI50 [25] was 46.8 µM (inactive). The GI50 [26] was > 100 µM (inactive), the GI50 [27] was > 100 µM (inactive) and the GI50 [28] was 89.3 µM (inactive). For the same molecule, the GI50 [29] was 41.2 µM (inactive), the GI50 [30] was 97.5 µM and the GI50 [55] was 21.6 µM (inactive). For the same molecule, the GI50 [31] was 25.6 µM (inactive), the GI50 [32] was > 100 µM (inactive) and the GI50 [34] was 18.3 µM (inactive). For the same molecule, the GI50 [35] was 64.4 µM (inactive), the GI50 [36] was > 100 µM (inactive) and the GI50 [37] was 32.1 µM (inactive). For the same molecule, the GI50 [38] was 45.9 µM (inactive), the GI50 [56] was > 100 µM (inactive) and the GI50 [39] was 96.4 µM (inactive). For the same molecule, the GI50 [40] was 49.7 µM (inactive), the GI50 [41] was 24.8 µM (inactive) and the GI50 [42] was 24 µM (inactive). For the same molecule, the GI50 [43] was 75.3 µM (inactive), the GI50 [44] was 34.8 µM (inactive) and the GI50 [45] was > 100 µM (inactive). The GI50 [46] was 86.5 µM (inactive), the GI50 [47] was 35.9 µM (inactive) and the GI50 [49] was > 100 µM (inactive). The GI50 [57] was > 100 µM (inactive).
